Reference: patent US10463609B2, “Dendrimers for sustained release of compounds” (WAYNE STATE UNIVERSITY, priority 2007, dated 2019)

What was measured:
[1] = system: Royal College of Surgeons retinal degeneration model (RCS) rats; experiment: Retinal biodistribution after intravitreal injection, epi-fluorescence histology of retinal cryosections, RCS rats; format: in vivo, rat
From the text: Retinal biodistribution of free-FITC and dendrimer-conjugated FITC (D-FITC) in healthy Sprague-Dawley (SD) and Royal College of Surgeons retinal degeneration model (RCS) rats with active neuroinflammation was studied. Epi-fluorescence histology from retinal cryosections performed 24-hours and ten days after intravitreal injection is shown in […] as follows.
The first set of results is shown in FIGS. 10A-10F, epi-fluorescence histology from retinal cryosections performed twenty four hours and ten days after intravitreal injection, showing (FIG. 10A) D-FITC distribution in normal SD rats at twenty four hours, and (FIG. 10B) D-FITC distribution in the RCS retinal neurodegeneration model at twenty four hours. The concentration of D-FITC within the outer nuclear layer (denoted by *) and debris zone are significant findings.
The D-FITC localization in the outer-retina was further analyzed by immunohistochemical labeling for activated microglial cells, astrocytes, and Mueller cells and the photoreceptors (as shown in FIGS. 11A-11D, FIGS. 12A-12B, FIGS. 13A-13D, FIG. 14, and FIGS. 15A-15B). […] There was minimal accumulation in the other cells in the inner and outer retina. FIGS. 11A-11D show Microglial uptake of D-FITC. (FIG. 11A) ED-1 immuno-histochemical labeling of inner-retinal microglial cells; (FIG. 11B) D-FITC uptake within inner retinal microglia (60×); (FIG. 11C) outer retinal ED-1 labeled activated microglia; and (FIG. 11D) D-FITC uptake within activated microglia.

[2] = Drug release from PLGA microspheres; format: physicochemical; details: ~5-10 μm PLGA microspheres containing 5% by mass of FA
Description: Drug release from PLGA microspheres was studied as follows. The drug release kinetics for free fluocinolone acetonide was analyzed for the same PLGA microspheres. For ˜5 -10 μm microspheres (containing 5% by mass of FA), the release was ˜0.5 μg/day (average) for the first thirty days, with a cumulative release of ˜30% in one month. There was 3% initial burst in the first three days. For dendrimer-FA conjugates, the initial burst may be capable of elimination due to their relatively larger size.

[3] = Water solubility of the conjugate; format: physicochemical
From the text: The glutaric acid spacer relieves the steric hindrance on the dendrimer surface, enabling intracellular drug release.
The filtrate was dialysed against DMSO for three days by replacing DMSO after each day (dialysis membrane cutoff 1000 Da) to remove unreacted compounds. The dialyzed product was dried under vacuum to obtain conjugate. ^1H-NMR was used to characterize the conjugate.

[4] = system: RCS rats; experiment: ERG b-wave amplitudes, FA IDDIs in RCS rats; format: in vivo, rat
Description: In other experiments, fluocinolone acetonide preserved electroretinogram b-wave amplitudes in treated eyes. The ONL data were consistent with ERG findings in the same animals (FIG. 9A). […] Although mean b-wave amplitude values in the eyes treated with FA 0.5 μg/day were quantitatively lower than the values in the eyes treated with FA 0.2 μg/day, there was no statistically significant difference between them (p=0.113).
Quantitatively, the left eye-ERG b-wave amplitudes of the FA 0.2 μg/day-treated group at the four-week time point were greater than those of control right and left eyes and placebo group-right and left eyes. […] The fellow-eye effects were attributed to drug-crossover. This is commonly seen in small mammals in which the volume of distribution is small.

[5] = system: RCS rats; experiment: Electroretinography after single intravitreal injection of D-FA or free FA in RCS rats; format: in vivo, rat; details: for ERG a-wave amplitude change, OD / ERG a-wave amplitude change, OS / ERG b-wave amplitude change, OD / ERG b-wave amplitude change, OS: Mean±Standard Error
Description: Neuroprotective effects of dendrimer-FA (D-FA) nanodevices were determined as follows. The neuroprotective effects of intravitreally-injected D-FA nanodevices to free-FA injections and IDDIs that release free-FA at a sustained daily rate were compared. […] Here the 1 μg and 3 μg refer to the FA content in D-FA. ONL cell densities were higher for D-FA than those measured for IDDIs and free FA injections.
The efficacy was analyzed using electroretinography (ERG) and histology.
Thirty albino RCS rats aged five weeks were divided into six equal groups. The experiments were terminated at nine weeks. Thus, the efficacy was evaluated over the four-week peak period of retinal degeneration in the RCS rats. The groups were: • 1. intravitreal injection of 3.0 μg dendrimer-conjugated fluocinolone acetonide (FA) in 1.0 μL of Phosphate Buffered Solution (PBS); • 2. intravitreal injection of 1.0 μg dendrimer-conjugated FA in 1.0 μL of PBS; • 3. intravitreal injection of 3.0 μg FA in 1.0 μL of PBS; • 4. intravitreal injection of 1.0 μg FA in 1.0 μL of PBS; • 5. intravitreal injection of 1 μL of PBS (vehicle control); • 6. light-exposed unoperated controls.

[6] = system: activated retinal microglial cells; experiment: Quantitative histology of activated retinal microglial cells by ED-1 immunolabelling, FA IDDIs in RCS rats; format: in vivo, rat; details: p<0.001
Description: FA suppressed neuroinflammation in RCS rats. In examining the mechanism of action of FA in preserving the ONL and ERG in the RCS rat, quantitative histological analysis of activated retinal microglial cells were performed using ED-1 immunolabelling. The photoreceptor layer and outer debris zone in RCS rats contain damaged lipid membranes that amplified photoreceptor damage by activating microglia to become phagocytic and release toxic substances such as tumor-necrosis factor alpha (TNF-α).

[7] = system: RCS rats; experiment: Quantitative histology of ONL and INL cells, FA sustained-release intravitreal drug delivery implants (IDDIs) in RCS rats; format: in vivo, rat
From the text: According to this Example, the steroid fluocinolone acetonide (FA) was highly neuroprotective in slowing the retinal degeneration of RCS rats when delivered via sustained-release intravitreal drug delivery implants (IDDIs).

[8] = 1.0 μg intravitreal in 1.0 μL PBS, end of study vs beginning
[9] = 3.0 μg intravitreal in 1.0 μL PBS, end of study vs beginning
[10] = FA 0.5 μg/day IDDI, treated eyes, four-week study

fluorescein isothiocyanate [Free-FITC]
retinal distribution at 24 hours ([1]; RCS rats, 24 hours after intravitreal injection): uniformly distributed
retinal retention at ten days ([1]; RCS rats, ten days after intravitreal injection): cleared from the retina
FITC fluorescence in the retinal pigment epithelium (RPE) ([1]; after intravitreal injection, 24 hours, similar at ten days): No FITC fluorescence was observed

CC1(C)O[C@@H]2C[C@H]3[C@@H]4C[C@H](F)C5=CC(=O)C=C[C@]5(C)[C@@]4(F)[C@@H](O)C[C@]3(C)[C@]2(C(=O)CO)O1 [FA, fluocinolone acetonide]
release rate (average) ([2]; first thirty days): ~0.5 µg/day
initial burst ([2]; first three days): 3%
cumulative release ([2]; in one month): ~30%
solubility in water [3]: not water soluble at comparable concentrations
mean four-week postoperative ERG b-wave amplitudes, treated eyes ([4]; 0.2 μg/day and 0.5 μg/day FA IDDIs, p<0.001): significantly greater than those of the unoperated control and placebo-treated eyes
mean ERG b-wave amplitudes of left (fellow) eyes ([4]; FA 0.2 μg/day IDDI group vs placebo-treated or control eyes): No statistically significant differences
mean ERG b-wave amplitudes of left (fellow) eyes ([4]; FA 0.5 μg/day IDDI group, four weeks, cross-over effect): significantly different from those of right and left eyes of unoperated control animals
ERG a-wave amplitude change, OD [5, 8]: −41.9 ± 13.4%
ERG a-wave amplitude change, OS [5, 8]: −47.8 ± 7.7%
ERG b-wave amplitude change, OD [5, 8]: −64.2 ± 8.6%
ERG b-wave amplitude change, OS [5, 8]: −55.6 ± 3.6%
ERG a-wave amplitude change, OD ([5]; 3.0 μg intravitreal in 1.0 μL PBS, end of study (9 weeks of age) vs beginning (5 weeks), loss (−)/gain (+) from initial amplitude): −12.5 ± 28.8%
ERG a-wave amplitude change, OS [5, 9]: −10.5 ± 30.1%
ERG b-wave amplitude change, OD [5, 9]: −42.6 ± 3.3%
ERG b-wave amplitude change, OS [5, 9]: −40.8 ± 3.5%
end-point ERG a-wave (photoreceptor response) amplitudes ([5]; at nine weeks of age, right vs left eyes): not true
activated microglial cell densities in the debris layer vs eyes with inactive IDDIs ([6]; FA 0.2 μg/day IDDI): nine-fold decrease
activated microglial cell densities in the debris layer vs non-surgical control eyes ([6]; FA 0.2 μg/day IDDI): five-fold decrease
debris zone activated microglial density vs eyes with inactive IDDIs ([6]; FA 0.5 μg/day IDDI): seven times lower
debris zone activated microglial density vs non-surgical control eyes ([6]; FA 0.5 μg/day IDDI): four times lower
ONL cell densities relative to inactive IDDI group ([7]; FA 0.2 μg/day IDDI, treated eyes, four-week study): 4.85±0.24 times
ONL cell densities relative to non-surgical controls ([7]; FA 0.2 μg/day IDDI, treated eyes, four-week study, nine-week RCS rats): 2.38±0.12 times
ONL counts relative to eyes that received inactive IDDIs [7, 10]: 3.56±0.17 times
ONL counts relative to non-surgical control eyes [7, 10]: 1.78±0.21 times
inner nuclear layer cell counts between groups ([7]; FA 0.2 and 0.5 μg/day IDDIs vs inactive implants and non-surgical controls): No significant differences
